Measured values: EP0745595A1, “3-(3-Aryloxyphenyl)-1-(substituted methyl)-s-triazine-2,4,6-oxo or thiotrione herbicidal agents” (American Cyanamid Company, priority 1995, dated 1996)

Columns and labels:
Format in all cases: in vivo
[1] = test system: CYPERUS SEROTINUS, ROTTB.; assay: Preemergence weed control under flooded paddy conditions, CYPSE (Flatsedge); conditions: preemergence, 3-4 weeks after treatment
Protocol: (§1) Results of herbicide evaluation are expressed on a rating scale (0-9). The scale is based upon a visual observation of plant stand, vigor, malformation, size, chlorosis and overall plant appearance as compared with a control.
(§2) Preemergence herbicidal activity under flooded paddy conditions is determined as follows: plant seeds or propagating organs are planted in the top 0.5 cm of silt loam soil in 32 oz. plastic containers with a diameter of 10.5 cm and no drainage holes. Water is added to these containers and maintained at 1.5 to 3 cm above the soil surface for the duration of the experiment. […] The treated containers are placed on greenhouse benches and cared for according to normal greenhouse procedures.- Three to four weeks after treatment the test is terminated and each container is examined and herbicidal effect rated according to the rating system provided in Example 40. The compounds evaluated are reported by compound number given in Example 40.
(§3) Plant species employed in this example are reported by header abbreviation, common name and scientific name.

[2] = test system: SAGITTARIA PYGMAEA, L.; assay: Preemergence weed control under flooded paddy conditions, SAGPY (Arrowhead (Pygmaea)); conditions: preemergence, 3-4 weeks after treatment
Protocol: as §1, §2, §3

[3] = test system: […], PRESL.; assay: Preemergence weed control under flooded paddy conditions, MOOVA (Monochoria); conditions: for Herbicidal effect rating, MOOVA: preemergence, 3-4 weeks after treatment; for MOOVA herbicidal rating: preemergence weeds, rated three to four weeks after treatment
How it was run: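 Seeds or propagules were planted 0.5 cm deep in silt loam, with flood water held at 1.5 to 3 cm. Compound in 50/50 aqueous/acetone was pipetted into the flood water at about 0.5, 0.25, 0.125 and 0.063 kg/ha. Injury was rated visually on a 0-9 scale against a control 3-4 weeks after treatment.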

[4] = test system: CYPERUS IRIA; assay: Preemergence weed control under flooded paddy conditions, CYPIR (Rice Flatsedge); conditions: for Herbicidal effect rating, CYPIR: preemergence, 3-4 weeks after treatment; for CYPIR herbicidal rating: preemergence weeds, rated three to four weeks after treatment
Protocol: as §1, §2, §3

[5] = test system: ORYZA SATIVA, L. TEBONNET; assay: Rice tolerance to post-transplant applications under flooded paddy conditions, ORYSAT (Rice, Tebonnet); conditions: post-transplant rice; for Herbicidal effect rating, ORYSAT: 3-4 weeks after treatment; for ORYSAT herbicidal rating (rice tolerance): rated three to four weeks after treatment;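 as to ORYSAT herbicidal rating (rice tolerance): applied to flooded soil surface three days after transplanting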
How it was run: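 Two ten-day-old Tebonnet rice seedlings transplanted into silt loam, flooded 1.5–3 cm; three days later the water surface treated with compounds in acetone/water at about 0.5, 0.25, 0.125 and 0.063 kg/ha. Visual 0–9 injury rating versus control after 3–4 weeks in greenhouse.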

[6] = test system: ECHINOCHLOA ORYZOIDES (ARD.)FRITSCH; assay: Preemergence weed control under flooded paddy conditions, ECHORC (Watergrass (Calif.)); conditions: for Herbicidal effect rating, ECHORC: preemergence, 3-4 weeks after treatment; for ECHORC herbicidal rating: preemergence weeds, rated three to four weeks after treatment
Protocol: as §1, §2, §3

[7] = test system: CASSIA OBTUSIFOLIA, L.; assay: Postemergence herbicidal evaluation, CASOB (Sicklepod); conditions: rated four to five weeks after treatment, averaged
How it was run: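 Two-week-old seedlings sprayed with compound in 50/50 acetone/water plus 0.5% TWEEN 20 at about 0.125–0.500 kg/ha via nozzle at 40 psi. Kept in greenhouse; rated visually 4–5 weeks after treatment on a 0–9 scale versus untreated control, averaging repeat tests.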

[8] = test system: CHENOPODIUM ALBUM, L.; assay: Postemergence herbicidal evaluation, CHEAL (Lambsquarters, Common); conditions: rated four to five weeks after treatment, averaged
Protocol: In the tests, seedling plants are grown in jiffy flats for about two weeks. The test compounds are dispersed in 50/50 acetone/water mixtures containing 0.5% TWEEN®20, a polyoxyethylene sorbitan monolaurate surfactant of Atlas Chemical Industries, […] to the plants through a spray nozzle operating at 40 psi for a predetermined time. After spraying, the plants are placed on greenhouse benches and are cared for in the usual manner, commensurate with conventional greenhouse practices. From four to five weeks after treatment, the seedling plants are examined and rated according to the rating system set forth below. Where more than one test is involved for a given compound, the data are averaged.
Plant species employed in these evaluations are reported by header abbreviation, common name and scientific name.
as §1

[9] = test system: AMBROSIA ARTEMISIIFOLIA, L.; assay: Postemergence herbicidal evaluation, AMBEL (Ragweed, Common); conditions: rated four to five weeks after treatment, averaged
How it was run: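 Common ragweed (Ambrosia artemisiifolia) seedlings were raised in jiffy flats for roughly two weeks, then sprayed postemergence through a nozzle at 40 psi with the test compound dispersed in 50/50 acetone/water carrying 0.5% TWEEN®20. The plants were kept on greenhouse benches under conventional care. Four to five weeks later, injury was rated visually on a 0-9 scale, and repeat tests were averaged.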

[10] = test system: ABUTILON THEOPHRASTI, MEDIC.; assay: Postemergence herbicidal evaluation, ABUTH (Velvetleaf); conditions: rated four to five weeks after treatment, averaged
How it was run: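 Velvetleaf (Abutilon theophrasti) seedlings were raised in jiffy flats for about two weeks and then sprayed postemergence. The test compound was dispersed in a 50/50 acetone/water mixture containing 0.5% TWEEN®20 and applied through a nozzle operating at 40 psi. Plants were kept on greenhouse benches and rated 0-9 four to five weeks after treatment.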

[11] = test system: IPOMOEA SPP.; assay: Postemergence herbicidal evaluation, IPOSS (Morningglory spp.); conditions: rated four to five weeks after treatment, averaged
How it was run: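 Seedlings of morningglory (Ipomoea spp.) were raised in jiffy flats for roughly two weeks. They were then sprayed postemergence through a nozzle at 40 psi with test compound dispersed in 50/50 acetone/water containing 0.5% TWEEN®20 surfactant. Plants were kept on greenhouse benches under standard care and visually rated 0-9 against controls four to five weeks after treatment.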

[12] = test system: CHENOPODIUM ALBUM, L.; assay: Preemergence herbicidal evaluation, CHEAL (Lambsquarters, Common); conditions: four to five weeks after treatment
How it was run: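 Rated 0-9 by visual comparison with control (stand, vigor, malformation, size, chlorosis, overall appearance) four to five weeks after preemergence soil spray. Dose equivalent to about 0.125 to 0.50 kg per hectare, applied in aqueous acetone to freshly seeded cups kept in greenhouse.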

C=CCn1c(=O)n(CC(=O)OCC)c(=O)n(-c2cc(Oc3ccc(C(F)(F)F)cc3Cl)ccc2[N+](=O)[O-])c1=O [Compound 13, Ethyl 3-allyl-5-{5-[(2-chloro-α,α,α-tri-fluoro-p-tolyl)oxy]-2-nitrophenyl}tetra-hydro-2,4,6-trioxo-s-triazine-1(2H)-acetate]
Herbicidal effect rating, CYPSE ([1]; 0.063 kg/ha): 0.0 | Herbicidal effect rating, CYPSE ([1]; 0.125 kg/ha): 0.0 | Herbicidal effect rating, CYPSE ([1]; 0.250 kg/ha): 0.0 | Herbicidal effect rating, CYPSE ([1]; 0.500 kg/ha): 0.0 | Herbicidal effect rating, SAGPY ([2]; 0.063 kg/ha): 0.0 | Herbicidal effect rating, SAGPY ([2]; 0.125 kg/ha): 0.0 | Herbicidal effect rating, SAGPY ([2]; 0.250 kg/ha): 0.0 | Herbicidal effect rating, SAGPY ([2]; 0.500 kg/ha): 0.0 | Herbicidal effect rating, MOOVA ([3]; 0.063 kg/ha): 9.0 | Herbicidal effect rating, MOOVA ([3]; 0.125 kg/ha): 9.0 | Herbicidal effect rating, MOOVA ([3]; 0.250 kg/ha): 9.0 | Herbicidal effect rating, MOOVA ([3]; 0.500 kg/ha): 9.0 | Herbicidal effect rating, CYPIR ([4]; 0.063 kg/ha): 9.0 | Herbicidal effect rating, CYPIR ([4]; 0.125 kg/ha): 9.0 | Herbicidal effect rating, CYPIR ([4]; 0.250 kg/ha): 9.0 | Herbicidal effect rating, CYPIR ([4]; 0.500 kg/ha): 9.0 | Herbicidal effect rating, ORYSAT ([5]; 0.063 kg/ha): 2.0 | Herbicidal effect rating, ORYSAT ([5]; 0.125 kg/ha): 2.0 | Herbicidal effect rating, ORYSAT ([5]; 0.250 kg/ha): 3.0 | Herbicidal effect rating, ORYSAT ([5]; 0.500 kg/ha): 3.0 | Herbicidal effect rating, ECHORC ([6]; 0.063 kg/ha): 9.0 | Herbicidal effect rating, ECHORC ([6]; 0.125 kg/ha): 9.0 | Herbicidal effect rating, ECHORC ([6]; 0.250 kg/ha): 9.0 | Herbicidal effect rating, ECHORC ([6]; 0.500 kg/ha): 9.0

CCOC(=O)Cn1c(=O)n(C)c(=O)n(-c2cc(Oc3ccc(C(F)(F)F)cc3Cl)ccc2[N+](=O)[O-])c1=O [Compound 9, Ethyl 3-{5-[(2-chloro-α,α,α-trifluoro-p-tolyl)oxy]-2-nitrophenyl}tetrahydro-5-methyl-2,4,6-trioxo-s-triazine-1(2H)-acetate]
CASOB, herbicide rating (0-9) ([7]; Rate 0.125 kg/ha): 9.0 | CASOB, herbicide rating (0-9) ([7]; Rate 0.250 kg/ha): 9.0 | CASOB, herbicide rating (0-9) ([7]; Rate 0.500 kg/ha): 9.0 | CHEAL, herbicide rating (0-9) ([8]; Rate 0.125 kg/ha): 9.0 | CHEAL, herbicide rating (0-9) ([8]; Rate 0.250 kg/ha): 9.0 | CHEAL, herbicide rating (0-9) ([8]; Rate 0.500 kg/ha): 9.0 | MOOVA herbicidal rating ([3]; Rate 0.063 kg/ha): 9.0 | MOOVA herbicidal rating ([3]; Rate 0.125 kg/ha): 9.0 | MOOVA herbicidal rating ([3]; Rate 0.250 kg/ha): 9.0 | MOOVA herbicidal rating ([3]; Rate 0.500 kg/ha): 9.0 | CYPIR herbicidal rating ([4]; Rate 0.063 kg/ha): 9.0 | CYPIR herbicidal rating ([4]; Rate 0.125 kg/ha): 9.0 | CYPIR herbicidal rating ([4]; Rate 0.250 kg/ha): 9.0 | CYPIR herbicidal rating ([4]; Rate 0.500 kg/ha): 9.0 | ORYSAT herbicidal rating (rice tolerance) ([5]; Rate 0.063 kg/ha): 3.3 | ORYSAT herbicidal rating (rice tolerance) ([5]; Rate 0.125 kg/ha): 3.7 | ORYSAT herbicidal rating (rice tolerance) ([5]; Rate 0.250 kg/ha): 5.7 | ORYSAT herbicidal rating (rice tolerance) ([5]; Rate 0.500 kg/ha): 6.0 | AMBEL, herbicide rating (0-9) ([9]; Rate 0.125 kg/ha): 9.0 | AMBEL, herbicide rating (0-9) ([9]; Rate 0.250 kg/ha): 9.0 | AMBEL, herbicide rating (0-9) ([9]; Rate 0.500 kg/ha): 9.0 | ABUTH, herbicide rating (0-9) ([10]; Rate 0.125 kg/ha): 9.0 | ABUTH, herbicide rating (0-9) ([10]; Rate 0.250 kg/ha): 9.0 | ABUTH, herbicide rating (0-9) ([10]; Rate 0.500 kg/ha): 9.0 | IPOSS, herbicide rating (0-9) ([11]; Rate 0.125 kg/ha): 9.0 | IPOSS, herbicide rating (0-9) ([11]; Rate 0.250 kg/ha): 9.0 | IPOSS, herbicide rating (0-9) ([11]; Rate 0.500 kg/ha): 9.0 | ECHORC herbicidal rating ([6]; Rate 0.063 kg/ha): 9.0 | ECHORC herbicidal rating ([6]; Rate 0.125 kg/ha): 9.0 | ECHORC herbicidal rating ([6]; Rate 0.250 kg/ha): 9.0 | ECHORC herbicidal rating ([6]; Rate 0.500 kg/ha): 9.0 | CHEAL rating ([12]; Rate 0.125 kg/ha): 9.0 | CHEAL rating ([12]; Rate 0.250 kg/ha): 9.0 | CHEAL rating ([12]; Rate 0.500 kg/ha): 9.0
